A word on the EC50: it is the concentration at which the effect is half-maximal.

Read-outs that look alike come from different tables or passages of the source. Peptide text beside a SMILES is read from it.

In test [1] the target is T1, sweet taste receptor (human T1R2 and T1R3 subunits, mouse Gα15) (Homo sapiens, UniProt Q7RTX0+Q8TE23, C757R/I191V/I486V/R317G).
T1 construct: expressed in transfected cells; host or cells: HEK293T (ATCC CRL-11268)
T1 sequence (Q8TE23 20-839 I191V/R317G/I486V): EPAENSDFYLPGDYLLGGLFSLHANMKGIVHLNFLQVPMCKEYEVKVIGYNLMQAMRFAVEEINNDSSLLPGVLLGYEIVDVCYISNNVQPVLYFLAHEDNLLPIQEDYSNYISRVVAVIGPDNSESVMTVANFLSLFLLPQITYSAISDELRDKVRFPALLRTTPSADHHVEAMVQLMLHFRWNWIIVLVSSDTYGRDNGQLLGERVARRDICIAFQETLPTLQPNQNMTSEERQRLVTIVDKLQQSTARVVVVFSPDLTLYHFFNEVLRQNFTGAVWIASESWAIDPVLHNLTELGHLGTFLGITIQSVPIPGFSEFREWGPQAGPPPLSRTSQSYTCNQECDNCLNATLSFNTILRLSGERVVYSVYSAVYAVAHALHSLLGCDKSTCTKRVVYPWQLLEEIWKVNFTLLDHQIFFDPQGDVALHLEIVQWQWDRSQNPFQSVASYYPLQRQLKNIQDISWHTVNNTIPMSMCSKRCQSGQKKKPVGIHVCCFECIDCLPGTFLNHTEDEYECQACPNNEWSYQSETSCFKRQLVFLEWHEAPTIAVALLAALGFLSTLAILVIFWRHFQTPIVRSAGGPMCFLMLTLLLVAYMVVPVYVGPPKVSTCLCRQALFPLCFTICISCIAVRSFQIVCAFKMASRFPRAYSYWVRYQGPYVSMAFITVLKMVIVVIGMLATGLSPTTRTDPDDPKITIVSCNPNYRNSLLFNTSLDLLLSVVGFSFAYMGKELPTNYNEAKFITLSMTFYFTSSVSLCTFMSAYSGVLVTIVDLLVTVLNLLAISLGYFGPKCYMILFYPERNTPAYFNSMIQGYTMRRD
T1 sequence (Q7RTX0 21-852 C757R): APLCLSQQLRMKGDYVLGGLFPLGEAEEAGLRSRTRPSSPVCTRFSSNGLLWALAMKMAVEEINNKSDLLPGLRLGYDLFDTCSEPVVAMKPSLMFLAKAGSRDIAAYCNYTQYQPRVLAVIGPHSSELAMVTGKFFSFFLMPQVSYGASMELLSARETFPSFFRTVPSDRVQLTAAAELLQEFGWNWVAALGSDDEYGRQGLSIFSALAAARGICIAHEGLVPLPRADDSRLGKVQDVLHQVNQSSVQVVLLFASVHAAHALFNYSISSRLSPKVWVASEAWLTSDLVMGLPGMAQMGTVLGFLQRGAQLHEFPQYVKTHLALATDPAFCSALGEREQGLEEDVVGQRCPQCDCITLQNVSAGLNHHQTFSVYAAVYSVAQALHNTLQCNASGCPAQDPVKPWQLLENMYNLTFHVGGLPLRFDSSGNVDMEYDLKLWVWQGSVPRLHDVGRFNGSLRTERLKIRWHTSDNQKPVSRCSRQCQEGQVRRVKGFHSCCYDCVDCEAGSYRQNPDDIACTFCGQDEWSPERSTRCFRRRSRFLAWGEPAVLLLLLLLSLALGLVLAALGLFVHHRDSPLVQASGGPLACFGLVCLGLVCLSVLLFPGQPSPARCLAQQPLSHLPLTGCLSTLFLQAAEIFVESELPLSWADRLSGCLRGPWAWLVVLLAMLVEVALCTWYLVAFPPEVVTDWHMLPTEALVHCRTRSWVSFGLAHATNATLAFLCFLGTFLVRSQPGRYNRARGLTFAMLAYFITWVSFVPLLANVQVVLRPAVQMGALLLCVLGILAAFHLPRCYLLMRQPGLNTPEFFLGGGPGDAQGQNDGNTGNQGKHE
In words: sweet taste receptor-expressing cell-based assay (calcium flux). As to conditions: natural, high intensity and artificial sweeteners; FIGS. 23 and 24. An excerpt: FIG. 24 (A-C) is series of line graphs representing the data obtained in various dose response experiments using sweet taste receptor agonists in a sweet taste receptor-expressing cell-based assay (using cells of this invention). (A) The responses of a sweet taste receptor-expressing cell line to natural caloric sweeteners were plotted as a function of the agonist concentration. (B) Dose response curves of common artificial sweeteners in a sweet taste receptor-expressing cell-based assay. (C) Dose response curves of natural high-intensity sweeteners in a sweet taste receptor-expressing cell-based assay.
FIG. 25 is a series of representative response traces generated after performing a sweet taste receptor-expressing cell-based assay using cells of this invention.
To identify a taste receptor modulator (e.g., umami taste receptor modulator or sweet taste receptor modulator), one exposes a cell or cell line of the invention to a test compound under conditions in which the taste receptor (e.g., umami taste receptor or sweet taste receptor) would be expected to be functional and then detects a statistically significant change (e.g., p<0.05) in taste receptor activity (e.g., umami taste receptor activity or sweet taste receptor activity) compared to a suitable control, e.g., cells that are not exposed to the test compound. Positive and/or negative controls using known agonists or antagonists and/or cells expressing different combinations of taste receptor subunits (e.g., umami taste receptor subunits or sweet taste receptor subunits) (and optionally a G protein) may also be used. In some embodiments, the taste receptor activity (e.g., umami taste receptor activity or sweet taste receptor activity) to be detected and/or measured is calcium release from the endoplasmic reticulum as a result of the down stream signaling events following taste receptor activation (e.g., umami taste receptor activation or sweet taste receptor activation). One of ordinary skill in the art would understand that various assay parameters may be optimized, e.g., signal to noise ratio.
See, e.g., FIGS. 23 and 24.
(A change in cytosolic calcium serves as a functional read-out for many receptors and channels.)

The target in another test is T2, GABAA α5β3γ2s (α5) (Homo sapiens, UniProt P18507+P28472+P31644).
T2 construct: expressed in transfected cells; host or cells: CHO
It is filed as cell-based. The method, then:
(§1) Cells were plated 24 hours prior to assay at 10-25,000 cells per well in 384 well plates in growth media (Ham's F-12 media plus FBS and glutamine). […] Incubation was for 1 hour, followed by plate loading onto the high throughput fluorescent plate reader (Hamamastu FDSS). […] The plates were read for 90 seconds.
(§2) Interaction of cell lines with test compounds was evaluated by measuring the membrane potential of GABAA, in response to test compounds using the following protocol.

For the next test, the target named is T3, GABAA α2β3γ2s (α2) (Homo sapiens, UniProt P18507+P28472+P47869, A343T).
T3 construct: expressed in transfected cells; host or cells: CHO
It is filed as cell-based. As to the method:
as §1, §2

In a further test the target is T4, GABAA α1β3γ2s (α1) (Homo sapiens, UniProt P14867+P18507+P28472).
T4 construct: expressed in transfected cells; host or cells: CHO
It is filed as cell-based. As to conditions: CHO cells, membrane potential dye. The method, then: as §1, §2

For a further test, the target named is T5, GABAA α3β3γ2s (α3) (Homo sapiens, UniProt P18507+P28472+P34903).
T5 construct: expressed in transfected cells; host or cells: CHO
It is filed as cell-based. Conditions: CHO cells, membrane potential dye. As to the method: as §1, §2

Test [2] deals with T6, sweet taste receptor (T1R2/T1R3) (Homo sapiens, UniProt Q7RTX0+Q8TE23, C757R/I191V/I486V/R317G).
T6 construct: expressed in transfected cells; host or cells: HEK293T (ATCC CRL-11268)
T6 sequence (Q8TE23 20-839 I191V/R317G/I486V): T1 sequence (Q8TE23 20-839 I191V/R317G/I486V)
T6 sequence (Q7RTX0 21-852 C757R): T1 sequence (Q7RTX0 21-852 C757R)
In words: Sweet cell-based calcium flux assay, HEK293T cells expressing T1R2, T1R3 and mouse Gα15. Conditions: FIG. 24, one assay; read-out: EC50 values (calcium flux).
Excerpt: Plates are then loaded on a high throughput plate reader (Hamamatsu FDSS). […] Calcium flux is detected for 90 seconds.

Test [3] deals with GABAA (α1β3γ2s, α2β3γ2s, α3β3γ2s, α5β3γ2s). In words: In-cell readout assay using halide-sensitive meYFP, GABAA-meYFP-CHO cells. It is filed as cell-based, human. Conditions: increasing concentrations of GABA ligand. The method, then:
The response of GABAA (subunit combinations of α1β3γ2s (A1), α2β3γ2s (A2), α3β3γ2s (A3) and α5β3γ2s (A5)) expressing CHO cells of the invention to test compounds was evaluated using the following protocol for an in-cell readout assay.
Cells were plated 24 hours prior to assay at 10-25,000 cells per well in 384 well plates in growth media (Ham's F-12 media plus FBS and glutamine). […] The assay plates were then loaded on the FDSS (Hamamatsu Corporation). […] The plates were read for 90 seconds.

Another test has as its target human GC-C (human) (UniProt P25092). In words: cell-based or functional assay.
[4] abbreviates: CHO cells, membrane potential dye.

T4 sequence (P14867 28-456): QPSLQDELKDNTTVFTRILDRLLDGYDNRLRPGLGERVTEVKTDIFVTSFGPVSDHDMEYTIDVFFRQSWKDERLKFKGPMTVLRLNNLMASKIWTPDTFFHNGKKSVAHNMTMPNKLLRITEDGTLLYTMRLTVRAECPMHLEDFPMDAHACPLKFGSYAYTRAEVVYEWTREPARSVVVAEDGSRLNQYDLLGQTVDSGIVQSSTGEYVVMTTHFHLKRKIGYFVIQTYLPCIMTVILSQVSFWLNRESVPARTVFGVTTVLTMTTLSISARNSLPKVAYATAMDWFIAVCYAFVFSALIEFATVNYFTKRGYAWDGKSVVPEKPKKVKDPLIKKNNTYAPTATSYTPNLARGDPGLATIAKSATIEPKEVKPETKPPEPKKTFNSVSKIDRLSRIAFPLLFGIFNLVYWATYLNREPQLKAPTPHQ
T4 sequence (P28472 26-473): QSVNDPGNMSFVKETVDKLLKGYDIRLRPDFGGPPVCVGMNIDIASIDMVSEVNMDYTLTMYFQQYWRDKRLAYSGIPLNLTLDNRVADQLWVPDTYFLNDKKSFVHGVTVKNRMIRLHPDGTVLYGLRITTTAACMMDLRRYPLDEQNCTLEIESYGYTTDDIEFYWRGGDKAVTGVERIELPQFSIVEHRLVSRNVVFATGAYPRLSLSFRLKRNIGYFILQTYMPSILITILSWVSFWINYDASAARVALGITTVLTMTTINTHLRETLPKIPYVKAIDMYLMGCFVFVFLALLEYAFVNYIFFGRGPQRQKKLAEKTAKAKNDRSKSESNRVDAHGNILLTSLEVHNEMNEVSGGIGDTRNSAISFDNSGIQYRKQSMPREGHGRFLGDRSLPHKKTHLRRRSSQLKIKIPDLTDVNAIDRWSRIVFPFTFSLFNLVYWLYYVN
T4 sequence (P18507 40-467 isoform P18507-1 limits assumed): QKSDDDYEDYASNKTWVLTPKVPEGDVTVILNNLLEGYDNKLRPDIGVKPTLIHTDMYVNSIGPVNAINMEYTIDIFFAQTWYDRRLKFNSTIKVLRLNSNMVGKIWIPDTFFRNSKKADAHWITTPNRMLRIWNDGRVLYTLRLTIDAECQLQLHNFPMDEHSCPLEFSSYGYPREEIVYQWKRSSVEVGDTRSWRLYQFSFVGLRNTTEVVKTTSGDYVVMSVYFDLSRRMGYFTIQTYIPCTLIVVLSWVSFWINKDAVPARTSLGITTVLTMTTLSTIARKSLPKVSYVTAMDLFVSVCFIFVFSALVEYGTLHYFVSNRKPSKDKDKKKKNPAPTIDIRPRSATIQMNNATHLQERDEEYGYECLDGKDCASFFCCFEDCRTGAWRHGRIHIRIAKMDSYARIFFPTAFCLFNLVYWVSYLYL
T2 sequence (P31644 32-462): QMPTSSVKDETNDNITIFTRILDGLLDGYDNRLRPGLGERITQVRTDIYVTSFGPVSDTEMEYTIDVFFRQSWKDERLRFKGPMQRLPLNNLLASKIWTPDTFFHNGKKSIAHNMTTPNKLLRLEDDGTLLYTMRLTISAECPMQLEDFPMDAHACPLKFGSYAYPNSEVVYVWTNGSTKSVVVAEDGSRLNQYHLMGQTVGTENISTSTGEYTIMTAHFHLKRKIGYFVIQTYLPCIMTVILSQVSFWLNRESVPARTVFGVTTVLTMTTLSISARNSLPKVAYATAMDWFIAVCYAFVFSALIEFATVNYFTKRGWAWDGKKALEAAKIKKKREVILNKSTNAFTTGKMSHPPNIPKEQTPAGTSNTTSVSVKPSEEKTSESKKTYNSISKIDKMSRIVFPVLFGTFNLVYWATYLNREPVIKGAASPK
T2 sequence (P28472 26-473): as the sequence (P28472 26-473) above
T2 sequence (P18507 40-467 isoform P18507-1 limits assumed): as the sequence (P18507 40-467 isoform P18507-1 limits assumed) above
T5 sequence (P34903 29-492): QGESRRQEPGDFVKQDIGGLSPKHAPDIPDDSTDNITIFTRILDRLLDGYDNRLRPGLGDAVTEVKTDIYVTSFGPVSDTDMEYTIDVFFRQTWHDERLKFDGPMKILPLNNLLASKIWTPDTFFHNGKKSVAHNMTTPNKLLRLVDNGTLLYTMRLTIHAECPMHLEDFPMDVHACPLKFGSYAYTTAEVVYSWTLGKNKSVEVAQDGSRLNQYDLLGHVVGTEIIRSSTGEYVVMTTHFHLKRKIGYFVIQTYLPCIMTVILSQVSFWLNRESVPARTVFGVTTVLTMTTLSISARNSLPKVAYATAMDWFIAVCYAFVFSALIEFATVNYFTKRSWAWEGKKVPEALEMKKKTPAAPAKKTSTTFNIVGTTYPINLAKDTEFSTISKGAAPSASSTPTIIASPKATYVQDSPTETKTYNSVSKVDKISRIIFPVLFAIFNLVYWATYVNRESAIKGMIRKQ
T5 sequence (P28472 26-473): as the sequence (P28472 26-473) above
T5 sequence (P18507 40-467 isoform P18507-1 limits assumed): as the sequence (P18507 40-467 isoform P18507-1 limits assumed) above
T3 sequence (P47869 29-451 A343T): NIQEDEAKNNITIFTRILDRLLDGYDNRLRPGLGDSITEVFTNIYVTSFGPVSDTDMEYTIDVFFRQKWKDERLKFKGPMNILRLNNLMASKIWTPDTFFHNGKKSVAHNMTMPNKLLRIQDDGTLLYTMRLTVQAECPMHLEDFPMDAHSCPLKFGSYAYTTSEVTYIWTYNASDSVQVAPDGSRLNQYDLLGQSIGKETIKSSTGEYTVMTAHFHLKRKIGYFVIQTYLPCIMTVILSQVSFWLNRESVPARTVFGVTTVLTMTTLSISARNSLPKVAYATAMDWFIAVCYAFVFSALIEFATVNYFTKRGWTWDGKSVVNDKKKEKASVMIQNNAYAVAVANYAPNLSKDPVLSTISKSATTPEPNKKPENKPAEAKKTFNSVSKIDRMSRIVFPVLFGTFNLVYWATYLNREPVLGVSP
T3 sequence (P28472 26-473, stated change not applied): as the sequence (P28472 26-473) above
T3 sequence (P18507 40-467 isoform P18507-1 limits assumed, stated change not applied): as the sequence (P18507 40-467 isoform P18507-1 limits assumed) above
Sequence of human GC-C (human) (P25092 24-1073): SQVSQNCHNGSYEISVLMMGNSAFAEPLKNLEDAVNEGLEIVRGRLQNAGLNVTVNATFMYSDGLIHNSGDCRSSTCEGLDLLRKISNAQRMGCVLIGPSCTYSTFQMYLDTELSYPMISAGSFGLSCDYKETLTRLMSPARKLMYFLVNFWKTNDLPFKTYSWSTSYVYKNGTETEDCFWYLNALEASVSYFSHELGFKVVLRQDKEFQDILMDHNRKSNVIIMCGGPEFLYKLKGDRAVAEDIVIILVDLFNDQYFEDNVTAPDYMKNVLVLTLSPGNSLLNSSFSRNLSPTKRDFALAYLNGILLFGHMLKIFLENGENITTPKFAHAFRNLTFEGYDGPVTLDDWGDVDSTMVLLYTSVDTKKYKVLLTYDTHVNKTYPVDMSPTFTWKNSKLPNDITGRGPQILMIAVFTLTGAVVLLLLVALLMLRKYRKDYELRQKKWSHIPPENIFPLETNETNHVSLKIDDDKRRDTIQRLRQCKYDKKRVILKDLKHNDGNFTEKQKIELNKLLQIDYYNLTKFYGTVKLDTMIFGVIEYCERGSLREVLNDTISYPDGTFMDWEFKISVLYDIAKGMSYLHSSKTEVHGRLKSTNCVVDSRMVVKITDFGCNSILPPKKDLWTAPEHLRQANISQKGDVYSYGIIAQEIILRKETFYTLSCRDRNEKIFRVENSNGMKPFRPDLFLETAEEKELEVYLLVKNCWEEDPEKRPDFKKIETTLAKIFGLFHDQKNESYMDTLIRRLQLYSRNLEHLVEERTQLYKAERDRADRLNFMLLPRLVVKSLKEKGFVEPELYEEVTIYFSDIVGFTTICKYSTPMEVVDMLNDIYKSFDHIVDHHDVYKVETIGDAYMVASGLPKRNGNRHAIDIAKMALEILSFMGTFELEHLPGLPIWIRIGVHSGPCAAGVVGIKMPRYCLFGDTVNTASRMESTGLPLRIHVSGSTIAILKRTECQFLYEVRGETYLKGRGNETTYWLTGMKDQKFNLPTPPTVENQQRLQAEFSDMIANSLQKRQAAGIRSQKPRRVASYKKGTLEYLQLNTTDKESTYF

As for `O=C1NS(=O)(=O)c2ccccc21` [saccharin], the “response of sweet taste receptor cells and cell lines to known classes of sweet compounds” value (from here on “response … of sweet compounds”) in test [1] is given as “respond”.

Turning to `CC12CCC(O)CC1CCC1C2CCC2(C)C(C(=O)CO)CCC12` (stereo not drawn) [3-alpha, 21-dihydroxy-5-alpha-pregnan-20-one], the EC50 on GABAA α5β3γ2s (α5) (setting [4]) came to 0.0173 µM; at GABAA α2β3γ2s (α2) (setting [4]), 0.123 µM; at GABAA α1β3γ2s (α1), 0.382 µM; at GABAA α3β3γ2s (α3) it was 0.0802 µM.

With `COC(=O)[C@H](Cc1ccccc1)NC(=O)[C@@H](N)CC(=O)O` [asparatame] (H-Asp-Phe-OMe), the “response … of sweet compounds” value in test [1] was “respond”.

As for `CC1=CC(=O)NS(=O)(=O)O1` [acesulfamek], the “response … of sweet compounds” value in test [1] was “respond”.

On to `OC[C@H]1O[C@@](CO)(O[C@H]2O[C@H](CO)[C@@H](O)[C@H](O)[C@H]2O)[C@@H](O)[C@@H]1O` [sucrose], for which the “response … of sweet compounds” value in test [1] is reported as “respond”. For the same molecule, in test [2], the EC50 is < 3500 µM.

Consider `NCCCC(=O)O` [GABA], for which the “quench of meYFP signal” value in test [3] is given as “increasing quench of meYFP signal”.

mogroside: the “response … of sweet compounds” value in test [1] is “respond”.

Consider `COc1cc(/C=C(\C#N)C(=O)c2ccc(O)c(O)c2)cc(I)c1O` [I—OMe Tyrphostin 538], for which the “EC50 Values α5 (result in words)” value on GABAA α5β3γ2s (α5) (setting [4]) is “Not active”. For the same molecule, the EC50 on GABAA α2β3γ2s (α2) (setting [4]) was 1.5 µM; on GABAA α1β3γ2s (α1), 3.5 µM; at GABAA α3β3γ2s (α3) it was 2.2 µM.

Take `CC(=O)C1CCC2C3CCC4CC(O)CCC4(C)C3CCC12C` (stereo not drawn) [5-alpha-Pregnan-3alpha-ol-20-one]: the EC50 on GABAA α5β3γ2s (α5) is 0.0336 µM; on GABAA α2β3γ2s (α2), 0.14 µM; at GABAA α1β3γ2s (α1), 0.692 µM; on GABAA α3β3γ2s (α3), 0.08 µM.

As for `C=C1C[C@@]23CC[C@H]4[C@@](C)(CCC[C@@]4(C)C(=O)O[C@@H]4O[C@H](CO)[C@@H](O)[C@H](O)[C@H]4O)[C@@H]2CC[C@]1(O[C@@H]1O[C@H](CO)[C@@H](O)[C@H](O[C@@H]2O[C@H](CO)[C@@H](O)[C@H](O)[C@H]2O)[C@H]1O[C@@H]1O[C@H](CO)[C@@H](O)[C@H](O)[C@H]1O)C3` [rebaudioside A], the “response … of sweet compounds” value in test [1] was “respond”.

As to `CC(C)(C)c1cc(C=C(C#N)C#N)cc(C(C)(C)C)c1O` [Tyrphostin A9], the half-maximal effective concentration (EC50) at GABAA α5β3γ2s (α5) (setting [4]) was found to be 54 µM; on GABAA α2β3γ2s (α2) (setting [4]), 0.88 µM; at GABAA α1β3γ2s (α1), 1.8 µM; on GABAA α3β3γ2s (α3), 5 µM.

In the test with human GC-C (human), guanylin (peptide) displayed an EC50 of guanylin dose-response (absorbance as a function of changes in cGMP levels) of 0.0011 µM and a level of cGMP of 6 pmol/mL.

Take Ivermectin: the EC50 was found to be 0.687 µM at GABAA α5β3γ2s (α5) (setting [4]), 0.767 µM at GABAA α2β3γ2s (α2) (setting [4]), 4.26 µM on GABAA α1β3γ2s (α1) and 0.798 µM on GABAA α3β3γ2s (α3).

The record behind these values is patent US20170052170A1, “NOVEL CELL LINES AND METHODS” (priority 2009, published 2017).
